Measured values from article PMC4382590 (Biochemistry, 2015).

What was measured:
[1] = target: T1, saFabI (Staphylococcus aureus, UniProt Q6GI75); assay: ThermoFluor thermal shift; type: binding; conditions: Tm of free enzyme 62.6
T1 sequence (Q6GI75 1-256): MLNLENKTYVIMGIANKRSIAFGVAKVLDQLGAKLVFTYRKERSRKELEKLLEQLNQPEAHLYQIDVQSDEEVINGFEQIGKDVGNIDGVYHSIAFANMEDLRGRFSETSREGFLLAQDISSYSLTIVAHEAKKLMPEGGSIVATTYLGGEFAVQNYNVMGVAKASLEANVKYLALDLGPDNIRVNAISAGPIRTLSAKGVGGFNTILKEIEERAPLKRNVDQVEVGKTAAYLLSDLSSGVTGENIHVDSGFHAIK

[2] = target: T1, saFabI; assay: X-ray crystal structure; type: binding; conditions: ternary complexes with PT12, PT400, PT404, PT449 or MUT37307
[3] = target: T2, ecFabI (Escherichia coli, UniProt P0AEK4); assay: X-ray crystal structure; type: binding
T2 sequence (P0AEK4 1-262): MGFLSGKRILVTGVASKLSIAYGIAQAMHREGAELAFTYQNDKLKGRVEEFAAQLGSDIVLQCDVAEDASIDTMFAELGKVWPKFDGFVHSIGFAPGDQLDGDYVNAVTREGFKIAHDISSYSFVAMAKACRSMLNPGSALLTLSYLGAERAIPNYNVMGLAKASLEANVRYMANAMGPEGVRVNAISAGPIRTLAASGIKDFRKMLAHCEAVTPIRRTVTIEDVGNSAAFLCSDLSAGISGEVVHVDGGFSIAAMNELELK

[4] = target: T1, saFabI; assay: single-concentration progress curve analysis; type: biochemical

Cc1c(N)cccc1Cn1ccc(OCCc2cccs2)cc1=O [CG400549]
Wild-type saFabI ([1]; ternary complex with NADPH): 71.2 °C

NC(=O)c1ccc[n+]([C@@H]2O[C@H](COP(=O)(O)OP(=O)(O)OC[C@H]3O[C@@H](n4cnc5c(N)ncnc54)[C@H](OP(=O)(O)O)[C@@H]3O)[C@@H](O)[C@H]2O)c1 [NADP^+]
X-ray crystal structure [2]: saFabI in complex with NADP^+ and PT12, PT400, PT404, PT449, or MUT37307

NC(=O)c1ccc[n+]([C@@H]2O[C@H](COP(=O)(O)OP(=O)(O)OC[C@H]3O[C@@H](n4cnc5c(N)ncnc54)[C@H](O)[C@@H]3O)[C@@H](O)[C@H]2O)c1 [NAD^+]
X-ray crystal structure ([3]; ternary complex with PT449): ecFabI in complex with NAD^+ and PT449 have been deposited in the PDB

CCCCCCc1ccc(Oc2ccc([N+](=O)[O-])cc2)c(O)c1 [PT12]
Ki [4]: 50 pM

CCCCCCc1ccc(Oc2ccccc2C#N)c(O)c1 [PT119]
Wild-type saFabI ([1]; ternary complex with NADP+): 70.4 °C

CCc1cc(O)c(Oc2ccc([N+](=O)[O-])cc2Cl)cc1F [PT404]
Ki [4]: 750 pM

N#Cc1cc(Br)ccc1Oc1ccc(Cl)cc1O [PT449]
X-ray crystal structure ([3]; ternary complex with NAD+): ecFabI in complex with NAD^+ and PT449 have been deposited in the PDB
